Results on 1 compound are retold here after patent US5595756A, “Liposomal compositions for enhanced retention of bioactive agents” (Inex Pharmaceuticals Corporation, priority 1993, dated 1997).

Series [1] is described as follows: Drug induced weight change in P388-bearing mice (% wt change on day 7). Type of series: in vivo, BDF1 mice. The settings on record: i.v. The source says:
Animal weights and mortality were monitored daily.

Series [2] relates to P388 lymphocytic leukemia. Description: P388 antitumor activity (murine lymphocytic leukemia model), free and liposomal vincristine i.v. The settings on record: for Median Survival / 60-day Survival: i.v.; for Median Survival: saline control 10.0; for 60-day Survival: survivors/total; for % ILS (increase in life span): from median survival, treated vs saline control.
Protocol: The antitumor effects of liposomal vincristine were monitored using the P388 lymphocytic leukemia model. BDF1 mice (5 per group) were injected i.p. with 1×10^6 P388 cells. The indicated doses of saline or liposomal vincristine were administered (i.v.) 24 h after tumor inoculation. Animal weights and mortality were monitored daily. Mean and median survival times as well as the statistical significance of the results were determined using the Mann-Whitney-Wilcoxon procedure.
Murine P388 antitumor activity of the DSPC/Chol/GM1 pH 2 liposomal vincristine preparation was compared to free drug and DSPC/Chol pH 4 liposomal vincristine (Table I below).
Setting [3] is: drug dose 1.0 mg/kg, lipid dose 10 mg/kg.
Where [4] appears, read: drug dose 2.0 mg/kg, lipid dose 20 mg/kg.
Setting [5] is: drug dose 3.0 mg/kg, lipid dose 30 mg/kg.

Take `CC[C@]1(O)C[C@H]2CN(CCc3c([nH]c4ccccc34)[C@@](C(=O)OC)(c3cc4c(cc3OC)N(C=O)[C@H]3[C@@](O)(C(=O)OC)[C@H](OC(C)=O)[C@]5(CC)C=CCN6CC[C@]43[C@@H]65)C2)C1` [Free Vincristine]: the “% wt change on day 7” value is “+1.9%” in series [1] (setting [3]), “+0.5%” in series [1] (setting [4]) and -13.4% in series [1] (setting [5]). In addition, the “Median Survival” value in series [2] (setting [3]) amounted to 14.0 days; in series [2] (setting [4]) it was 15.0 days; in series [2] (setting [5]), 16.0 days. In addition, the “60-day Survival” value in series [2] (setting [3]), in series [2] (setting [4]) and in series [2] (setting [5]) was 0/5 each time. The “% ILS (increase in life span)” value in series [2] (drug dose 1.0 mg/kg) amounted to 40%; in series [2] (drug dose 2.0 mg/kg), 50%; in series [2] (drug dose 3.0 mg/kg), 60%. Further, the long-term survivors entry in series [2] (long-term = >70 days) is reported as “No long-term survivors”.
